In US10842797B2, “Nutraceutical co-crystal compositions” (UNIVERSITY OF SOUTH FLORIDA, priority 2007, dated 2020):

Procedure: Solubility profiles for co-crystals were determined by UV-vis spectroscopy (Perkin Elmer-Lambda 25 UV-vis spectrometer, 400 nm).
The solubility of KP10 in 1:1 ethanol/water (V/V %) was determined by UV-vis spectroscopy, with a wavelength of 360 nm.
The solubility of KP15 in 1:1 ethanol/water (V/V %) was determined by UV-vis spectroscopy, with a wavelength of 300 nm.

increase in the solubility of quercetin in the co-crystal when compared to quercetin dehydrate | increase in the solubility of hesperetin in the co-crystal when compared to pure hesperetin | Substance
~6 fold | – | Co-Crystal of Quercetin and Iso-Nicotinamide [KP10]
– | approximately 12 fold | Co-Crystal of Hesperetin and Iso-Nicotinamide [KP15]
